According to ChEMBL document CHEMBL3112539, “Synthesis of neoglycosphingolipid from methoxyamino-functionalized ceramide” (Bioorg Med Chem Lett, 2014):
The source made the active and inactive calls. The calls are words filed in the database; no cut-off is given here.

What was measured:
[1] = biological target: T1, Endoglycoceramidase II (Rhodococcus sp) (UniProt A0ACD6B832); assay: (§1) Inhibition of Rhodococcus sp. recombinant endoglycoceramidase 2 hydrolytic activity assessed as lactose released from (2S,3S,4R)-2-[N-(octadecanoyl)amino]-1-{O-[beta-galactosylpyranosyl-(1->4)-beta-glucopyranosyl]}octadecane-1,3,4-triol at 0.27 mM after 15 mins by modified Park and Johnson method
T1 sequence (A0ACD6B832 as listed by the source): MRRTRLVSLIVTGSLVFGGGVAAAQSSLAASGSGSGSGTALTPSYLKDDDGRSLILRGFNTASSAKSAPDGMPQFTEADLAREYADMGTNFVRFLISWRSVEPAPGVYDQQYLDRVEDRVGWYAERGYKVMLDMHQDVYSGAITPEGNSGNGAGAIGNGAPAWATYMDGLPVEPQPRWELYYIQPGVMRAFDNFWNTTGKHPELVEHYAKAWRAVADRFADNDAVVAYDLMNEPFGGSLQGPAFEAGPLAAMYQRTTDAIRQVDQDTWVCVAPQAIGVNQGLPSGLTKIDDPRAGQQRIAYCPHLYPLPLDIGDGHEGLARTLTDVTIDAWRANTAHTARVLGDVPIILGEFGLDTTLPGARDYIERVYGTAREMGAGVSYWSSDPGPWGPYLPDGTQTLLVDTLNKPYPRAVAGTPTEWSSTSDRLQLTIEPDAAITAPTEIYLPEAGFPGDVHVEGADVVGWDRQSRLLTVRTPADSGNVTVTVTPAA

[2] = biological target: T1, Endoglycoceramidase II (Rhodococcus sp); assay: Inhibition of Rhodococcus sp. recombinant endoglycoceramidase 2 hydrolytic activity assessed as lactose released from O-LacCer at 0.74 mM after 15 mins by modified Park and Johnson method
[3] = biological target: T1, Endoglycoceramidase II (Rhodococcus sp); assay: as §1, with “Competitive inhibition” for “Inhibition”

CCCCCCCCCCCCCCCCCC(=O)N[C@@H](CN(OC)[C@@H]1O[C@H](CO)[C@@H](O[C@@H]2O[C@H](CO)[C@H](O)[C@H](O)[C@H]2O)[C@H](O)[C@H]1O)[C@H](O)[C@H](O)CCCCCCCCCCCCCC
inhibition [1]: Active | inhibition [2]: inactive | inhibition [3]: Active
